This note sets out measurements from patent US6046228A, “Anti-viral pharmaceutical compositions containing saturated 1,2-dithiaheterocyclic compounds and uses thereof” (priority 1999, dated 2000).

In assay [1] the test system is monocyte-macrophage (Mo/M.PHI.) cultures. Nature of the assay: cytotoxicity in monocyte-macrophage cultures. It is filed as cell-based. The procedure: (§1) Initial anti-HIV screening was performed with CEM-SS cells and HIV-1RFusing the XTT cytoprotection assay as previously described (Weislow et al., J. National Cancer Inst. 81: 577-586, (1989)). HIV-1 isolates included common laboratory stains (RF, IIIB and MN), as well as a panel of HIV-1 clinical isolates (Cushman et al., J. Med. Chem. 37: 3040-3050, (1994)). The pyridone-resistant HIV-1A17 isolate (Nunberg et al., J. Virol., 65: 4887-4892 (1991)) was obtained from Emilio Emini at Merck Sharpe and Dohme Laboratories. Phytohemagglutinin-stimulated human peripheral blood lymphocytes (PBLs) and fresh monocyte-macrophage (Mono/MF) cultures were prepared and utilized in antiviral assays as previously described (Rice et al., Proc. Nat'l. Academy Science, USA 90: 9721-9724, (1993)); (Cushman et al., J. Med. Chem. 37: 3040-3050, (1994)). EC50 values for these cultures indicate the drug concentration that provided a 50% reduction in viral p24 production. […] The compounds can be synthesized according to the teachings of Singh et al., Sulfur Letters 8: 107-114, (1988). The 4,5-cis-dihydroxy(1,1-dioxy-1,2,-dithiohexane) compound (NSC 624151) has been abbreviated as 624151 for convenience. MT-2, MT-4, U1, HeLa-CD4-LTR-β-gal and 174xCEM cells were obtained from the AIDS Research and Reference Program (National Institute of Allergy and Infectious Disease, National Institutes of Health, Bethesda, Md. USA), as were the HIV-2MS and the AZT-resistant HIV-1G910-6 isolates.

For assay [2], the system named is HIV-1 SK1. The assay can be described thus: XTT cytopathicity assay, SK1. It is filed as cell-based. As to conditions: Human immunodeficiency virus 1, CEM-SS. The procedure:
as §1, with “MT-2, MT-4, U1, HeLa-CD4-LTR-β-gal and 174xCEM cells were obtained from the AIDS Research and Reference Program (National Institute of Allergy and Infectious Disease, National Institutes of Health, Bethesda, Md. USA), as were the HIV-2MS and the AZT-resistant HIV-1G910-6 isolates.” left out

For assay [3], the system named is HIV-1 ROJO(SI). Nature of the assay: antiviral assay in PBL (p24), clinical isolate ROJO. It is filed as cell-based. As to conditions: Human immunodeficiency virus 1, cell-free p24. The procedure:
as §1, with “MT-2, MT-4, U1, HeLa-CD4-LTR-β-gal and 174xCEM cells were obtained from the AIDS Research and Reference Program (National Institute of Allergy and Infectious Disease, National Institutes of Health, Bethesda, Md. USA), as were the HIV-2MS and the AZT-resistant HIV-1G910-6 isolates.” left out

Assay [4] deals with HIV-1 Calo-139. The assay can be described thus: XTT cytopathicity assay, drug resistant HIV-1. It is filed as cell-based. As to conditions: MT-2, Calo-139. The procedure: as §1
(§2) ^a Anti-HIV studies utilizing lymphocytederived cell lines were
(§3) performed using the XTT cytopathicity assay, while antiviral assays

Assay [5] relates to HIV-1 DPS-181. Nature of the assay: XTT cytopathicity assay, drug resistant HIV-1. As to conditions: MT-2, DPS-181. It is filed as cell-based. The procedure:
as §1, §2, §3

Assay [6] has as its system HIV-1 E-BPTU-181. The assay can be described thus: XTT cytopathicity assay, drug resistant HIV-1. Type of assay: cell-based. As to conditions: MT-2, E-BPTU-181. As for the experimental part:
as §1, §2, §3

Assay [7] relates to HIV-1 HEPT-236. Nature of the assay: XTT cytopathicity assay, drug resistant HIV-1. As to conditions: MT-2, HEPT-236. Type of assay: cell-based. The procedure:
as §1, §2, §3

Assay [8] deals with HIV-1 OC-100. The assay can be described thus: XTT cytopathicity assay, drug resistant HIV-1. Type of assay: cell-based. As to conditions: MT-2, OC-100. As for the experimental part:
as §1, §2, §3

Assay [9] concerns HIV-1 TIBO-98/100. The assay can be described thus: XTT cytopathicity assay, drug resistant HIV-1. Type of assay: cell-based. As to conditions: MT-2, TIBO-98/100. The procedure:
as §1, §2, §3

The subject of assay [10] is HIV-1 Thiazol-108. Nature of the assay: XTT cytopathicity assay, drug resistant HIV-1. Type of assay: cell-based. As to conditions: MT-2, Thiazol-108. As for the experimental part:
as §1, §2, §3

In assay [11] the test system is HIV-1 UC38-181. The assay can be described thus: XTT cytopathicity assay, drug resistant HIV-1. It is filed as cell-based. As to conditions: MT-2, UC38-181. The procedure: as §1, §2, §3
Assay [12] has as its system HIV-1IIIB. Nature of the assay: combination antiviral XTT assay, CEM-SS cells, method of Prichard and Shipman. It is filed as cell-based. As to conditions: for synergy volume: 95% confidence level. As for the experimental part: Analysis of drug combinations was performed utilizing the XTT assay described above, with statistical evaluations performed according to the method of Prichard and Shipman (Antiviral Res. 14: 181-206, (1990)). Combination antiviral XTT assays were performed with CEM-SS cells utilizing HIV-1IIIB as previously described (Buckheit et al., Antimicrobial Agents and Chemotherapy 39: 2718-2727, (1995)). The standard anti-HIV assay was altered for combination analysis by increasing the multiplicity of infection 3-fold, allowing greater statistical consistency in these assays.
The synergy volumes for the combinatorial anti-HIV activities calculated at the 95% confidence level were 37, 80, 44, 55 and 16 μM^2, respectively, for each combination. Synergy volumes that range from […] represent additivity and volumes>50% represent synergistic responses. […] Thus, it is anticipated that the present dithiane dioxide compounds can be used in pharmaceutical compositions further including other antiviral agents.

In assay [13] the test system is attachment of HIV-1 to fresh human PBLs. Nature of the assay: virus attachment assay, HIV-1RF to PBLs (p24-based). Type of assay: cell-based. The procedure:
Binding of HIV-1RF to PBLs was measured by a p24-based assay (Rice, et al., Proc. Nat'l. Academy of Science USA 90: 9721-9724, (1993)). Briefly, 5×10^5 PBLs were incubated with a concentrated stock of virus for 30 min. at 37° C. in the absence or presence of various concentrations of 624151, the unbound virus was washed away, and the cell-associated virus was solubilized in 1% Triton X-100, 1% BSA and analyzed by the p24 antigen capture assay as previously described. The binding of gp120to CD4 was analyzed using an antigen capture ELISA. All steps of the assay were carried out according to the manufacturer's protocols.
^.dagger. Attachment of HIV1 to fresh human PBLs, binding of gp120 to […]

Assay [14] relates to HIV-1RF virions. Nature of the assay: viral inactivation assay, HeLa-CD4-LTR-βgal cells. Type of assay: cell-based. As to conditions: FIG. 2(B), in words. The procedure:
HeLa-CD4-LTR-βgal cells (1.5×10^4 /well) were plated in 200 μl volume in flat bottom 96-well microtiter plates for 24 hours, after which the fluid was removed and replaced with drug-treated samples. The HIV-1RF stock was treated with various concentrations NSC 624151 for 2 hours at 37° C., followed by centrifugation (18,000×g for 1 hour at 4° C.) to remove compound from the virus, preparation of serial two-fold dilutions and plating of 200 μl of each dilution in triplicate onto the cell monolayer. The cultures were then incubated for 4 additional days, and monolayers were then fixed for 5 minutes with 2% formaldehyde/2% glutaraldehyde, washed twice with cold PBS and then stained with X-gal substrate for 24 hours at 37° C. The number of blue-stained cells (each indicating a single infectious unit) were then counted in each well and the number of infectious units per ml (mean±SD) of sample were determined values calculated.

In assay [15] the target is T1, HIV-1 protease (Human immunodeficiency virus type 1 group M subtype B, UniProt P04585).
T1 construct: the purified HIV-1 protease and integrase enzymes
Nature of the assay: processing of purified recombinant Pr55^gag by purified HIV-1 protease. Type of assay: biochemical. As to conditions: data not shown, in words.

`O=S1(=O)C[C@H](O)[C@H](O)CS1` (relative stereo) [NSC 624151, cis-1,1-dioxo[1,2]dithiane-4,5-diol] displayed an IC50 in assay [1] of over 100 µM. Further, the EC50 in assay [2] is 22.7 µM; in assay [3] it was 25 µM; in assay [4], 15 µM; in [5], 16.5 µM; in [6], 17 µM; in assay [7] it was 16 µM. Further, the EC50 in assay [8] turned out to be 12.7 µM; in assay [9], 16 µM; in assay [10], 17 µM; in assay [11], 17 µM. Further, the “combination response with other antiviral agents” value in assay [12] (AZT, ddC, 3TC, Costatolide or KNI-272, in words) was “additive to slightly synergistic response in combination with other antiviral agents, but was not antagonistic with any agents tested”. Besides, the synergy volume is 44 μM^2 in assay [12] (in combination with 3TC); 37 μM^2 in assay [12] (in combination with AZT); 55 μM^2 in assay [12] (in combination with Costatolide); 16 μM^2 in assay [12] (in combination with KNI-272 protease inhibitor); 80 μM^2 in assay [12] (in combination with ddC). The Attachment entry in assay [13] (Table 6) is given as “NI100μμ”. Further, the “inhibition of attachment of HIV-1 virions to target cells” value in assay [13] (in words) was “did not inhibit”. Further, the “inactivation of viral infectivity” value is “enter intact virions and inactivate the viral infectivity” in assay [14]; “concentration-dependant inactivation of viral infectivity” in assay [14] (listed as 624151). Besides, the “inhibition of purified HIV-1 protease processing of recombinant Pr55^gag” value in [15] was “not to inhibit purified HIV-1 protease”.
